In patent US9890176B2, “Mannose derivatives for treating bacterial infections” (Vertex Pharmaceuticals Incorporated, priority 2013, dated 2018) one finds IC50 data, which are given here for 39 compounds.

Broadly, the IC50 is the midpoint of a concentration-inhibition curve.

The experiment relates to bacterial strain LF82 binding to the glycoprotein BSA-(Mannose)3. Kind of experiment: Bacterial Binding Assay (BBA). The format is cell-based, Escherichia coli. Conditions: read-out: Bacterial Binding Assay IC50. An excerpt: The purpose of the Bacterial Binding Assay (BBA) is to determine the inhibition activity of selective FimH antagonists on the bacterial strain LF82 binding to the glycoprotein BSA-(Mannose)3.
Below is a list of the Materials used to run the BBA are described below. • 1. LB broth: Supplier: Gibco, #10855 • 2. D-PBS: Supplier: Wisent, #311-425-CL • 3. LB agar plates • 4. 96-well black plate (high binding): Supplier: Costar, #3925 • 5. TopSeal™-A adhesive sealing films; Supplier PerkinElmer, #6005185 • 6. Carbonate-bicarbonate buffer pH 9.6 tablets, Supplier: Medicago, #09-8922-24 • 7. Water, Supplier: Gibco, #15230-162 • 8. Bovine serum albumin (BSA): Supplier: Sigma, #A-7888 • 9. (Man)-3-BSA (α1-3, α1-6 Mannotriose-BSA, 1 mg), V-Labs, #NGP1336, lot#HGDX37-169-1 • 10. Tween 20: Supplier: Sigma, #P9416 • 11. Bright-Glo Luciferase Assay System: Supplier: Promega, #E2610 • 12. LF82/Luciferase strain: Invasive ability of an Escherichia coli strain isolated from the ileal mucosa of a patient with Crohn's disease. Boudeau J, Glasser A L, Masseret E, Joly B, Darfeuille-Michaud A, Infect Immun. 1999, 67(9), 4499-509
Solutions and buffers used to run the BBA are described below. • 1. 0.04M carbonate-bicarbonate buffer (coating buffer) • 2. […] 1 mg of (Man)-3-BSA in 25 mL of water. • 3. 4000 ng/mL BSA • 4. 40 ng/mL BSA • 5. 1 μg/mL BSA-(Man)3: 150 μL of 40 ng/mL BSA-(Man)3+5.85 mL of 40 ng/mL BSA • 6. 0.5 μg/mL BSA-(Man)3 in 0.02M carbonate-bicarbonate buffer. • 7. 20 ng/mL BSA in 0.02M carbonate-bicarbonate buffer • 8. Blocking buffer (2% BSA/DPBS): 1 g of BSA in 50 mL D-PBS • 9. 2× binding buffer (0.2% BSA/D-PBS): 5 mL of blocking buffer+45 mL D-PBS. • 10. Washing buffer (D-PBS/0.01% Tween 20): 10 μL of Tween 20 in 100 mL D-PBS. • 11. 1× Bright-Glo Luciferase substrate:Dilute 1:1 the Bright-Glo Luciferase Assay System with D-PBS The experimental protocol to run the BBA is described below.
Overnight culture of LF82/Luciferase strain: Into two Falcon 50 mL tubes, add 20 mL of LB+20 μL of 50 mg/mL Kanamycin and inoculate with a loop from glycerol stock of the LF82/Luciferase strain. Incubate overnight at 37° C. with no shaking.
Glycoprotein coating of 96-well plates: Add 100 μL/well of 0.5-2 μg/mL BSA-(Man)3. 20 μg/mL BSA is used as the control background. Seal plate using an adhesive sealing film and incubate overnight at room temperature. Wash the 96-well plate three times with 150 μL/well of D-PBS, add 170 μL/well of blocking solution and incubate 45 min (minimum) at room temperature.
Preparation of bacterial suspension: Mix the two cultures tubes (40 mL) and perform a 1:10 dilution in LB (900 μl LB+100 μl culture. Measure optical density (OD) of the bacterial cultures. OD1 ˜5×10^8 cells/mL. Centrifuge LF82 culture for 20 min at 3500 rpm at room temperature. Re-suspend bacterial pellet in D-PBS and centrifuge again for 20 min at 3500 rpm. Re-suspend bacterial pellet in D-PBS to obtain a bacterial concentration of 2×10^9 bacteria/mL. Dilute 1/10 in D-PBS to obtain a final bacterial concentration of 2×10^8 bacteria/mL (=107 bacteria/50 μL). Perform 1/10 serial dilutions in LB of each bacterial suspension, plate 10 μL of dilutions on LB agar plates (final dilutions of 10^−7) and incubate overnight at 37° C. and count CFUs to determine the actual bacteria density in the assay.
Bacterial binding assay: Add 147 μL 2× binding buffer to compound plate (containing 3 μL of compound). After blocking step is performed (at least 45 min), wash plates three times with 200 μL/well of D-PBS. With a 100 μL multichannel manual pipettor, add 50 μL/well of compound diluted in 2× binding buffer. With a 100 μL multichannel manual pipettor, add 50 μL/well of bacterial suspension. Agitate at slow speed for 1 min and incubate 40-75 min at room temperature. Wash 5 times with 150 μL/well of washing buffer and then once with D-PBS. Add 100 μL/well of 1× Bright-Glo Luciferase substrate. […]

With `Cc1cc(-c2cccc(C(=O)O)c2)ccc1O[C@H]1O[C@H](CO)[C@@H](O)[C@H](O)[C@]1(C)O` [Compound 21], the IC50 came to 112 ± 37 nM.
The value for `Cc1cc(-c2cccc(C(=O)NCCOCCOCCN)c2)ccc1O[C@H]1O[C@H](CO)[C@@H](O)[C@H](O)[C@]1(C)O` [Compound 22] was 15 ± 4 nM; that for `CNC(=O)c1cccc(-c2ccc(O[C@H]3O[C@H](CO)[C@@H](O)[C@H](O)[C@@]3(O)COCc3ccccc3)c(C)c2)c1` [Compound 23] was 115 ± 25 nM.
Turning to `CNC(=O)c1cccc(-c2ccc(O[C@H]3O[C@H](CO)[C@@H](O)[C@H](O)[C@@]3(O)CO)c(C)c2)c1` [Compound 24], the IC50 was found to be 19 ± 3 nM.
The value for `CNC(=O)c1cccc(-c2ccc(O[C@H]3O[C@H]([C@@H](O)C(C)C)[C@@H](O)[C@H](O)[C@@H]3O)c(C)c2)c1` [Compound 30] was over 10000 nM; that for `CC[C@H](O)[C@H]1O[C@H](Oc2ccc(-c3cccc(C(=O)NC)c3)cc2C)[C@@H](O)[C@@H](O)[C@@H]1O` [Compound 31] was over 10000 nM; that for `O=[N+]([O-])c1cccc(-c2ccc3c(c2)CC[C@]2(O3)O[C@H](CO)[C@@H](O)[C@H](O)[C@@H]2O)c1` [Compound 34] was 79 ± 31 nM.
The value for `C[C@@]1(O)[C@@H](OCc2ccccc2)O[C@H](CO)[C@@H](O)[C@@H]1O` [Compound 37] was over 10000 nM.
The value for `CNC(=O)c1cccc(-c2ccc(O[C@H]3O[C@H](CO)[C@@H](O)[C@H](O)[C@@]3(O)CN=[N+]=[N-])c(C)c2)c1` [Compound 38] was 105 ± 5 nM; that for `CNC(=O)c1cccc(-c2ccc(O[C@H]3O[C@H](CO)[C@@H](O)[C@H](O)[C@]3(C)O)cc2F)c1` [Compound 39] was 265 ± 135 nM; that for `CNC(=O)c1cccc(-c2ccc(O[C@H]3O[C@H](CO)[C@@H](O)[C@H](O)[C@]3(C)O)cc2Cl)c1` [Compound 40] was 220 ± 110 nM.
Turning to `CNC(=O)c1cccc(-c2ccc(O[C@H]3O[C@H](CO)[C@@H](O)[C@H](O)[C@]3(C)O)cc2OC)c1` [Compound 41], the IC50 came out at 220 ± 110 nM.
The value for `CNC(=O)c1cccc(-c2ccc(O[C@H]3O[C@H](CO)[C@@H](O)[C@H](O)[C@]3(C)O)cc2C)c1` [Compound 42] was 375 ± 255 nM.
With `CNC(=O)c1cccc(-c2ccc(O[C@H]3O[C@H](CO)[C@@H](O)[C@H](O)[C@]3(C)O)cc2C(F)(F)F)c1` [Compound 43], the concentration for half-maximal inhibition (IC50) was found to be 785 ± 474 nM.
The value for `CNC(=O)c1cccc(-c2ccc(Cl)c(O[C@H]3O[C@H](CO)[C@@H](O)[C@H](O)[C@]3(C)O)c2)c1` [Compound 44] was 43 ± 12 nM; that for `CNC(=O)c1ccc(-c2ccc(Cl)c(O[C@H]3O[C@H](CO)[C@@H](O)[C@H](O)[C@]3(C)O)c2)cc1` [Compound 45] was 116 ± 34 nM.
The value for `CNC(=O)c1cccc(-c2cccc(O[C@H]3O[C@H](CO)[C@@H](O)[C@H](O)[C@]3(C)O)c2Cl)c1` [Compound 46] was 126 ± 38 nM; that for `CNC(=O)c1ccc(-c2cccc(O[C@H]3O[C@H](CO)[C@@H](O)[C@H](O)[C@]3(C)O)c2Cl)cc1` [Compound 47] was 55 ± 29 nM.
In the case of `CNC(=O)c1cccc(-c2ccc(O[C@H]3O[C@H](CO)[C@@H](O)[C@H](O)[C@@]3(O)CN)c(C)c2)c1` [Compound 48], the half-maximal inhibitory concentration (IC50) turned out to be 605 ± 215 nM.
The value for `CNC(=O)c1cccc(-c2ccc(O[C@H]3O[C@H](CO)[C@@H](O)[C@H](O)[C@@]3(O)COCCOCc3ccccc3)c(C)c2)c1` [Compound 49] was 280 ± 20 nM; that for `CNC(=O)c1cccc(-c2ccc(O[C@H]3O[C@H](CO)[C@@H](O)[C@H](O)[C@@]3(O)COCCO)c(C)c2)c1` [Compound 50] was 830 ± 170 nM; that for `CNC(=O)c1cccc(-c2ccc(O[C@H]3O[C@H](CO)[C@@H](O)[C@H](O)[C@@]3(O)Cn3cc(CO)nn3)c(C)c2)c1` [Compound 51] was 7150 ± 50 nM.
On to `CNC(=O)c1cccc(-c2ccc(O[C@H]3O[C@H](CO)[C@@H](O)[C@H](O)[C@@]3(O)CNC(C)=O)c(C)c2)c1` [Compound 52], for which the half-inhibitory concentration (IC50) was 48 ± 10 nM.
As for `COCCNC(=O)c1cccc(-c2ccc(O[C@H]3O[C@H](CO)[C@@H](O)[C@H](O)[C@]3(C)O)c(Cl)c2)c1` [Compound 53], the IC50 stood at 24 ± 6 nM.
For `C[C@@]1(O)[C@@H](Oc2ccc(-c3ccc(C(=O)NC4CC4)c(Cl)c3)cc2Cl)O[C@H](CO)[C@@H](O)[C@@H]1O` [Compound 54], the half-inhibitory concentration (IC50) was 42 ± 7 nM.
The value for `CNC(=O)c1cc(-c2ccc(O[C@H]3O[C@H](CO)[C@@H](O)[C@H](O)[C@]3(C)O)c(Cl)c2)ccc1F` [Compound 55] was 20 ± 0.5 nM.
Consider `CNC(=O)c1cc(F)cc(-c2ccc(O[C@H]3O[C@H](CO)[C@@H](O)[C@H](O)[C@]3(C)O)c(Cl)c2)c1` [Compound 56], for which the half-maximal inhibitory concentration (IC50) is 24 ± 0.5 nM.
The result for `COC(=O)c1cccc(-c2ccc(O[C@H]3O[C@H](CO)[C@@H](O)[C@H](O)[C@]3(C)O)c(C)c2)c1` [Compound 57] reads 17 ± 4 nM; that for `Cc1cc(-c2cccc(C(=O)NCCN3CCN(C)CC3)c2)ccc1O[C@H]1O[C@H](CO)[C@@H](O)[C@H](O)[C@]1(C)O` [Compound 58], 13 ± 1 nM; that for `Cc1cc(-c2cccc(C(=O)N[C@@H](CO)[C@H](C)O)c2)ccc1O[C@H]1O[C@H](CO)[C@@H](O)[C@H](O)[C@]1(C)O` [Compound 59], 20 ± 4 nM.
The value for `Cc1cc(-c2cccc(C(=O)NC(CO)(CO)CO)c2)ccc1O[C@H]1O[C@H](CO)[C@@H](O)[C@H](O)[C@]1(C)O` [Compound 60] was 16 ± 0.5 nM; that for `Cc1cc(-c2cccc(C(=O)NC(C)(CO)CO)c2)ccc1O[C@H]1O[C@H](CO)[C@@H](O)[C@H](O)[C@]1(C)O` [Compound 61] was 22 ± 6 nM; that for `Cc1cc(-c2cccc(C(=O)NC(CO)CO)c2)ccc1O[C@H]1O[C@H](CO)[C@@H](O)[C@H](O)[C@]1(C)O` [Compound 62] was 9 ± 3 nM.
The result for `Cc1cc(-c2cccc(C(=O)NCCN3CCOCC3)c2)ccc1O[C@H]1O[C@H](CO)[C@@H](O)[C@H](O)[C@]1(C)O` [Compound 63] reads 12 ± 3 nM; that for `Cc1cc(-c2cccc(C(=O)NC[C@H]3OC(O)[C@H](O)[C@@H](O)[C@@H]3O)c2)ccc1O[C@H]1O[C@H](CO)[C@@H](O)[C@H](O)[C@]1(C)O` (stereo partly drawn) [Compound 64], 20 ± 0.5 nM.
For `Cc1cc(-c2cccc(C(=O)N[C@H]3[C@H](O)[C@@H](CO)OC(O)[C@@H]3O)c2)ccc1O[C@H]1O[C@H](CO)[C@@H](O)[C@H](O)[C@]1(C)O` (stereo partly drawn) [Compound 65], the IC50 stood at 20 ± 8 nM.
The result for `Cc1cc(-c2cccc(C(=O)NCC3CCN(C(=O)OC(C)(C)C)CC3)c2)ccc1O[C@H]1O[C@H](CO)[C@@H](O)[C@H](O)[C@]1(C)O` [Compound 66] reads 11 ± 3 nM.
Take `Cc1cc(-c2cccc(C(=O)NCCN(C)C)c2)ccc1O[C@H]1O[C@H](CO)[C@@H](O)[C@H](O)[C@]1(C)O` [Compound 67]: the IC50 came out at 15 ± 6 nM.
Regarding `Cc1cc(-c2cccc(C(=O)N3CCN(C)CC3)c2)ccc1O[C@H]1O[C@H](CO)[C@@H](O)[C@H](O)[C@]1(C)O` [Compound 68], the IC50 was 26 ± 4 nM.
